Laboratory results reported in a melting point compilation (Tetko et al.).

Row | SMILES | melting point
1 | O=C(O)Cn1c(COc2ccccc2)nc2ccccc21 | 199 to 201 °C
2 | N#Cc1ccc(OCC(=O)O)c(Cl)c1 | 178 to 180 °C
3 | COc1cc(OC)c2cc(CCCN)[nH]c2c1 | 113 to 115 °C
4 | CC(Cl)C(=O)Nc1cccc2ccccc12 (configuration not stated) | 146 to 148 °C
5 | N#Cc1cccc(OCCCCC(=O)O)c1 | 78 to 80 °C
6 | O=C(O)c1cc(Cl)ccc1OCC(F)(F)F | 121 to 123 °C
7 | Nc1nc(Cl)c(Cl)cc1[N+](=O)[O-] | 126 to 128 °C
8 | Nc1nc(-c2cc3ccccc3o2)cs1 | 243 to 245 °C
9 | CN(C)C(C(=O)O)c1cccnc1 (configuration not stated) | 184 to 186 °C
10 | Cc1cccc2c(CC#N)c[nH]c12 | 109 to 111 °C
11 | COc1cccc2c1OCC(C(=O)O)=C2 | 239 to 241 °C
12 | CC(=O)NCc1ccc(-c2csc(N)n2)s1 | 221 to 223 °C
13 | Brc1cccc(-c2nnco2)c1 | 74 to 76 °C
14 | CNc1nc(S)nc2ccccc12 | 220 to 222 °C
15 | Nc1c(C(=O)c2ccco2)oc2ccccc12 | 180 to 182 °C
16 | COc1ccc(O)c(C(C)N)c1 (configuration not stated) | 123 to 125 °C
17 | CC(Cl)C(=O)NC(c1ccccc1)c1ccccc1 (configuration not stated) | 130 to 139 °C
18 | COCc1c(C(=O)O)sc2cccc(F)c12 | 130 to 139 °C
19 | CCc1ccc2c(CC(=O)O)coc2c1 | 82 to 84 °C
20 | N#Cc1cc(F)ccc1N | 92 to 96 °C
21 | O=C(O)Cc1csc(NC(=O)c2ccco2)n1 | 223 to 225 °C

Row | SMILES | melting point
22 | O=C(O)c1ccc(Oc2ccc(Oc3ccccc3)cc2)nc1 | 152 to 154 °C
23 | Cn1cnnc1Sc1ccccc1N | 137 to 139 °C
24 | CCOC(=O)Cn1cc(Br)ccc1=O | 81 to 83 °C
25 | c1cnc(N2CCNCC2)cn1 | 48 to 50 °C
26 | CC(=O)c1ccc(-n2cnc3ccccc32)cc1 | 135 to 137 °C
27 | COc1ccc2cc(CCl)c(Cl)nc2c1 | 133 to 135 °C
28 | COc1ccc(-c2csc(N)n2)cc1C | 179 to 181 °C
29 | COc1ccc(N)cc1NC(=O)c1cccc(F)c1 | 100 to 102 °C
30 | CNc1ccnc(C)c1 | 59 to 61 °C
31 | FC(F)c1nnc2ccc(Cl)nn12 | 101 to 103 °C
32 | NNc1nccc2sccc12 | 191 to 193 °C
33 | CCCn1c(N)c(NCCN2CCOCC2)c(=O)[nH]c1=O | 153 to 155 °C
34 | Cc1ccc(O)c(C(=O)NCC(C)C)c1 | 51 to 53 °C
35 | CC1=NN(c2cc(C)ccc2C)C(=O)C1 | 164 to 166 °C
36 | O=C(O)Cc1c[nH]c2cc(F)ccc12 | 159 to 161 °C
37 | CCCNCC(=O)Nc1ccc(Cl)cc1 | 44 to 46 °C
38 | NC(Cc1nc2ccccc2[nH]1)=NO | 138 to 140 °C
39 | Nc1c([N+](=O)[O-])cc(F)c(F)c1Br | 104 to 106 °C
40 | N#Cc1cnn(-c2ccc(C(=O)O)cc2)c1N | 289 to 291 °C
41 | Nc1cc(-c2ccncc2)n[nH]1 | 194 to 196 °C
42 | Sc1nnc(NC2CC2)s1 | 170 to 172 °C

Row | SMILES | melting point
43 | O=c1[nH]ccc2sccc12 | 159 to 161 °C
44 | COc1ccc2[nH]c3c(c2c1)CCCC3 | 59 to 61 °C
45 | CC(C)c1ccc(O)c(C(=O)O)c1 | 123 to 125 °C
46 | Brc1ccc(Cc2nnn[nH]2)cc1 | 172 to 174 °C
47 | CC(C)(C)n1cc(C#N)cc1NC(=O)OCC(F)(F)F | 147 to 149 °C
48 | O=C(O)/C(=C\c1ccccc1)c1cccs1 | 169 to 171 °C
49 | Nc1ncncc1CO | 165 to 167 °C
50 | Cc1cc(C(=O)O)c(C)n1CC1CC1 | 179 to 181 °C
51 | Nc1cccc(-c2n[nH]c3c2CCC3)c1 | 168 to 170 °C
52 | CCOC(=O)c1c(N)sc2c1CC(C)(C)NC2(C)C | 95 to 97 °C
53 | COc1ccc(-c2noc(CCl)n2)cc1OC | 101 to 103 °C
54 | O=[N+]([O-])C=Cc1ccc(SC(F)(F)F)cc1 | 136 to 138 °C
55 | Cc1nc(-c2cccc(Br)c2)ccc1C(=O)O | 181 to 183 °C
56 | ClCc1nnc(-c2ccccc2Br)o1 | 104 to 107 °C
57 | CCC(O)CNc1ccccc1 (configuration not stated) | 48 to 50 °C
58 | Cc1nn(Cc2cccc(Br)c2)cc1C(=O)O | 164 to 166 °C
59 | C#Cc1cccc(NCC(=O)NC)c1 | 127 to 129 °C
60 | CCOC(=O)c1oc(N)nc1C | 219 to 221 °C
61 | CCc1c(C(C)=O)oc2ccccc12 | 33 to 35 °C
62 | COc1ccc(C(C)=O)cc1Br | 82 to 84 °C
63 | COc1ccc2cc(/C=C/C(=O)O)ccc2c1 | 183 to 195 °C

Row | SMILES | melting point
64 | N#Cc1ccc(NC(N)=O)cc1 | 234 to 236 °C
65 | CC(C)(C)Cc1cc(N)on1 | 87 to 89 °C
66 | Cc1cc(C=O)c(C)n1C1CCCCC1 | 75 to 77 °C
67 | CC(=O)c1c[nH]c2cc(Br)ccc12 | 239 to 241 °C
68 | FC(F)(F)c1cccc(-c2ccc(Cl)nn2)c1 | 133 to 135 °C
69 | Clc1ccc2nc(Cl)nc(Cl)c2c1 | 89 to 91 °C
70 | N#CCc1coc(-c2ccccc2)n1 | 87 to 89 °C
71 | Nc1ccccc1-n1ccc(C(=O)O)n1 | 136 to 138 °C
72 | COC(=O)c1cc2c(OC)c(OC)c(OC)cc2[nH]1 | 136 to 138 °C
73 | CC(C)OCc1cc(C(=O)O)ccc1F | 84 to 86 °C
74 | N#Cc1ccccc1-c1ccccc1C(=O)O | 168 to 170 °C
75 | N#Cc1cn(-c2ccccc2[N+](=O)[O-])nc1N | 188 to 190 °C
76 | O=C(O)CCCc1csc2ccccc12 | 109 to 111 °C
77 | Clc1ccc(CN2CCNCC2)cn1 | 89 to 91 °C
78 | Cc1c(N)cnn1CCC(C)C | 46 to 48 °C
79 | O=C(/C=C/c1ccco1)C(C(=O)/C=C/c1ccco1)=C1SCCCCS1 | 137 to 139 °C
80 | O=C1CN=C(S)N1Cc1ccccc1 | < 17 °C
81 | Nc1ccc(Cl)cc1-n1cccc1 | 92 to 94 °C
82 | CN(C(=O)c1cccc(C(=O)O)c1)c1ccccc1 | 170 to 172 °C

Continued, values first:

Row | melting point | SMILES
83 | 120 to 122 °C | O=C(CCl)N1CCN(S(=O)(=O)c2ccc3c(c2)CCC3)CC1
84 | 33 to 35 °C | COc1ccc(Cl)cc1C(C)=O
85 | 239 to 241 °C | CN1C(=O)CCC(C(N)=O)C1c1ccc(C(F)(F)F)cc1 (configuration not stated)
86 | 47 to 49 °C | O=S(=O)(c1ccccc1O)C(F)(F)F
87 | 159 to 161 °C | Cc1nc(N)cc(C2CC2)n1
88 | 163 to 165 °C | O=C(O)CNC1=NCCCCC1
89 | 71 to 73 °C | [N-]=[N+]=NCCN1C(=O)C(=O)c2ccccc21
90 | 184 to 186 °C | O=C(CN1CCCC1)Nc1c(I)cc(I)cc1I
91 | 150 to 152 °C | Cc1ccc(Cl)cc1C(N)=O
92 | 117 to 119 °C | Cc1cccc(C(N)=O)n1
93 | 35 to 37 °C | COc1ccccc1NS(=O)(=O)c1cccc(N)c1
94 | 88 to 90 °C | CNS(=O)(=O)N1CCc2ccccc2C1
95 | 166 to 168 °C | COc1ccccc1C1(C)CC1C(=O)O (configuration not stated)
96 | 161 to 163 °C | O=C(O)C1CCCN1C(=O)Nc1ccccc1 (configuration not stated)
97 | 183 to 185 °C | O=C(O)c1cc(S(=O)(=O)N2CCOCC2)c(Cl)cc1Cl
98 | 139 to 141 °C | O=C1C=CC(=O)N1c1cc(Cl)cc(Cl)c1
99 | 331 to 333 °C | Nc1cccc(-c2c3c(=O)[nH][nH]c(=O)c3c3n2CCC3)c1
100 | 144 to 146 °C | CC(=O)Nc1ccccc1CC(=O)O
101 | 89 to 91 °C | O=C1CC2CCC(C1)N2c1ccccc1
102 | 136 to 138 °C | CCc1ccc(N)cc1S(N)(=O)=O

Row | melting point | SMILES
103 | 104 to 106 °C | O=C1C(Br)CCN1c1cccc([N+](=O)[O-])c1 (configuration not stated)
104 | 146 to 148 °C | NC(=O)CC1CCNCC1
105 | 167 to 169 °C | CC(C)NS(=O)(=O)c1ccc(F)c(C(=O)O)c1
106 | 129 to 131 °C | CC(C)(C)OC(=O)N1CC(=O)NC(=O)C1
107 | 65 to 67 °C | CCCCS(=O)(=O)NCC(=O)O
108 | 112 to 114 °C | O=C(O)CCCOc1ccc(S(=O)(=O)Cl)cc1F
109 | 53 to 55 °C | CCS(=O)(=O)c1ccc(CC(=O)O)cc1
110 | 152 to 154 °C | NC(=O)CC1CC2CCC1C2 (configuration not stated)
111 | 211 to 213 °C | Nc1ccc2c(c1)C(=O)N(c1ccc(F)cc1)C2=O
112 | 158 to 160 °C | NC(=O)c1c(N)sc2c1CCC2
113 | 213 to 215 °C | O=C1NC(=O)C(c2cccc(O)c2)N1 (configuration not stated)
114 | 148 to 150 °C | Cc1ccc(S(=O)(=O)NCCC(=O)O)cc1
115 | 82 to 84 °C | COC(=O)c1nsnc1C(=O)O
116 | 249 to 251 °C | CN1CCC(=O)Nc2cc(C(=O)O)ccc21
117 | 279 to 281 °C | Cc1cc(C(=O)O)ccc1N1CCNC1=O
118 | 135 to 137 °C | O=C(O)Cc1ccc(S(=O)(=O)CC(F)F)cc1
119 | 145 to 147 °C | NS(=O)(=O)c1cc([N+](=O)[O-])c(Br)s1
120 | 134 to 136 °C | Cc1ccc(CNC(=O)C2CCNCC2)cc1F
121 | 129 to 131 °C | O=C(O)c1ccccc1NCCC1=CCCCC1
122 | 111 to 113 °C | O=S1(=O)CC(O)C(S(=O)(=O)Cl)C1 (configuration not stated)

Row | melting point | SMILES
123 | 210 to 212 °C | CON(C)S(=O)(=O)c1ccc(C(=O)O)cc1
124 | 80 to 82 °C | COC(=O)C(O)c1cc(Cl)cc(Cl)c1 (configuration not stated)
125 | 156 to 158 °C | COc1ccccc1NS(=O)(=O)c1cccc(C(=O)O)c1
126 | 170 to 172 °C | Cc1ccc(NC(=O)C(=O)O)cc1
127 | 200 to 202 °C | CC(=O)Nc1cc(N)ccc1Cl
128 | 166 to 168 °C | CCCCC(NC(N)=O)C(=O)O (configuration not stated)
129 | 304 to 306 °C | O=c1[nH]c2ccc(S(=O)(=O)Cl)cc2[nH]c1=O
130 | 109 to 111 °C | CNS(=O)(=O)c1ccc(C(C)=O)cc1
131 | 102 to 104 °C | COc1ccc(C2CCN2S(=O)(=O)c2ccc(C)cc2)cc1 (configuration not stated)
132 | 199 to 201 °C | Cc1ccc(-n2[nH]c(C(=O)O)c(CCO)c2=O)cc1
133 | 131 to 133 °C | CC(C)(C)OC(=O)N1CCN(c2ccc(N)nc2)CC1
134 | 203 to 205 °C | O=C(O)CN1C(=O)c2ccccc2C(F)(F)C1=O
135 | 94 to 96 °C | Nc1ccc(S(=O)(=O)C(F)(F)F)cc1
136 | 156 to 158 °C | O=C(O)c1cnn(-c2ccccn2)c1C(F)(F)F
137 | 158 to 160 °C | CC(C)(C)OC(=O)N1CCN(C(N)=O)C(C(=O)O)C1 (configuration not stated)
138 | 149 to 151 °C | COC(=O)c1c(N)sc2c1CCC2
139 | 76 to 78 °C | Cc1cc(C(=O)CCl)c(C)n1-c1ccccn1
140 | 209 to 211 °C | O=C(O)c1ccc(N2CCc3ccccc3C2)cc1
141 | 163 to 165 °C | Cc1cc(Br)c(C)c(S(=O)(=O)Cl)c1
142 | 185 to 187 °C | O=C(O)C1(S(=O)(=O)c2ccc(Cl)cc2)CC1
